Assay results taken from a melting point compilation (Tetko et al.).

Structure (SMILES) | melting point [°C]
O=C(O)COc1ccccc1C(F)(F)F | 151 to 153
O=C(O)c1ccc2nnn(O)c2c1 | 229 to 231
Nc1ccc(S(=O)(=O)CC2CCCO2)cc1 (stereo not given) | 100 to 102
O=S(=O)(c1ccc(Br)s1)N1CCNCC1 | 195 to 205
O=C(O)c1cccc(COc2cccc(F)c2)c1 | 108 to 110
COc1ccccc1OCCBr | 39 to 41
O=C1CCN(c2ccccc2)C1 | 94 to 96
Cc1ccc(S(=O)(=O)Cl)c([N+](=O)[O-])c1 | 97 to 99
NCC(O)CN1CCOCC1 (stereo not given) | 36 to 40
CCc1ccc(-c2ccc(C=O)o2)cc1 | 45 to 47
Cc1nn(-c2ccc(F)cc2)cc1C=O | 91 to 93
CCOC(=O)C(C)NC(=O)c1ccc(N)cc1 (stereo not given) | 127 to 129
O=C(O)c1cccc(N2C(=O)CCC2=O)c1 | 237 to 239
CC(=O)c1ccc(NS(C)(=O)=O)cc1 | 155 to 157
N#CC(Cl)c1c(F)cccc1Cl (stereo not given) | 49 to 51
OCc1cn(-c2cccc(Cl)c2Cl)nn1 | 105 to 107
O=C(O)c1cccc2[nH]ncc12 | 285 to 287
COc1ccc(CNS(=O)(=O)CC#N)cc1OC | 126 to 128
Nc1cnccc1-n1ccnc1 | 134 to 136
O=[N+]([O-])c1cc(NCC2CC2)ccc1S(=O)(=O)NCC1CC1 | 132 to 134
O=c1sc2ccccc2nc1NO | 244 to 246
CNS(=O)(=O)c1ccc(N)cc1C | 117 to 119
CC(C)COc1ncccc1C(=O)O | 84 to 86
O=C(O)c1cc(F)cc(Cl)c1O | 210 to 212
N#Cc1nnc2ccccc2c1Cl | 179 to 181
N#CC=CS(=O)(=O)c1ccc(Cl)cc1 | 141 to 143
N#Cc1ccc(S(=O)(=O)N2CCC(O)CC2)cc1 | 161 to 163
Cc1nn(Cc2ccc(Cl)cc2)c(C)c1C=O | 71 to 73

Structure (SMILES) | melting point [°C]
CC1=C(C(=O)Nc2ccccc2)C2(CCCCC2)C(C#N)=C(S)N1 | 238 to 240
COC(=O)c1cc([N+](=O)[O-])ccc1N | 163 to 165
FC(F)(F)Cc1nc2cc(Br)ccc2[nH]1 | 139 to 141
CC(Cl)C(=O)Nc1ccccc1Oc1ccccc1 (stereo not given) | 64 to 66
O=C(COc1ccccc1C(=O)O)Nc1cccc(C(F)(F)F)c1 | 243 to 245
O=C(O)C1CCCN(C(=O)CCOc2ccccc2)C1 (stereo not given) | 171 to 173
O=C(O)C1(Br)CCCCC1 | 57 to 59
O=c1[nH]c(Cl)cc2ccccc12 | 214 to 216
CC(C)(C)OC(=O)N1CCCC(C)(C(=O)O)C1 (stereo not given) | 117 to 119
CC(C)NS(=O)(=O)c1cc(C(=O)O)ccc1F | 168 to 170
Cc1cc(C)n(-c2ccc(C(F)(F)F)cc2N)n1 | 85 to 87
N#CCc1nc2scc(-c3ccccc3)c2c(=O)[nH]1 | 279 to 281
CC(C)(C)C(Br)C(N)=O (stereo not given) | 91 to 93
CCOCCS(N)(=O)=O | 30 to 32
CC(=O)Nc1cncc(C(=O)NN)c1 | 229 to 231
Sc1ccc(Sc2ccc(S)cc2)cc1 | 112 to 114
CCC(C)c1ccc(-n2c(S)nc3cc(Cl)ccc3c2=O)cc1 (stereo not given) | 242 to 244
NC(=O)NC(CC(=O)O)c1cccc(Oc2ccccc2)c1 (stereo not given) | 122 to 124
CC(=O)c1csc(N)n1 | 165 to 177
CC(=O)CC(=O)Nc1ccc(NC(=O)C2CC2)cc1 | 183 to 185
COc1cc(S(N)(=O)=O)ccc1N | 142 to 144
C=CC(=O)Nc1cc(OC)c(Cl)cc1OC | 124 to 126
Nc1ccc(F)c(S(=O)(=O)Nc2ccc(Br)cc2)c1 | 161 to 163
O=c1[nH]c2cc(F)ccc2c(=O)o1 | 240 to 242
Cc1c(C(=O)O)cc(Br)cc1S(N)(=O)=O | 213 to 215
O=C(O)c1cc([N+](=O)[O-])ccc1SC1CCCC1 | 203 to 205
Cc1ccnn1-c1ccc(C(=O)O)cc1 | 243 to 245
